Experiment [1] has as its target T1, TR-β (Homo sapiens, UniProt P10828).
T1 sequence (P10828 1-461): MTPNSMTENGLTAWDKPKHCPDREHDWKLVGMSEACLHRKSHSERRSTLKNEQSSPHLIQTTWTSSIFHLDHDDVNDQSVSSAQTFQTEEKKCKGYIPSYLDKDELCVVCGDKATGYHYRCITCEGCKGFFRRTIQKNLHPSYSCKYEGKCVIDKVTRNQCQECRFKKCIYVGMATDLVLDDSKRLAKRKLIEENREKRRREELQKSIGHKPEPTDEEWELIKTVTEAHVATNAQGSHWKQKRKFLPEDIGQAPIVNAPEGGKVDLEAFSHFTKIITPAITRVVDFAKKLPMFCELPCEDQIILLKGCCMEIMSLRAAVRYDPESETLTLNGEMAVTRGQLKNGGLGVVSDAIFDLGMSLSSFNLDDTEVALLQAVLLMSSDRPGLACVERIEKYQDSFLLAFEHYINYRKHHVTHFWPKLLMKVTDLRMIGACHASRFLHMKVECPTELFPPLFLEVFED
Briefly: In vitro TR-β activity (in-house protocol). The class given is cell-based. Conditions: read-out: TR-β Fold Induction w.r.t T3(100 nm); for fold induction at 0.001 µM: Conc. 1 nM; for fold induction at 0.01 µM: Conc. 10 nM; for fold induction at 0.1 µM: Conc. 100 nM; for fold induction at 1 µM: Conc. 1000 nM. As to the method:
(§1) In vitro TR-α & TR-β activities were determined as per in-house protocols and the results of representative compounds are provided in tables 1 & 2 below as a proof of the efficacies of the novel class of compounds disclosed above.

Experiment [2] addresses T2, TR-α (Homo sapiens, UniProt P10827).
T2 sequence (P10827 1-410 isoform P10827-2): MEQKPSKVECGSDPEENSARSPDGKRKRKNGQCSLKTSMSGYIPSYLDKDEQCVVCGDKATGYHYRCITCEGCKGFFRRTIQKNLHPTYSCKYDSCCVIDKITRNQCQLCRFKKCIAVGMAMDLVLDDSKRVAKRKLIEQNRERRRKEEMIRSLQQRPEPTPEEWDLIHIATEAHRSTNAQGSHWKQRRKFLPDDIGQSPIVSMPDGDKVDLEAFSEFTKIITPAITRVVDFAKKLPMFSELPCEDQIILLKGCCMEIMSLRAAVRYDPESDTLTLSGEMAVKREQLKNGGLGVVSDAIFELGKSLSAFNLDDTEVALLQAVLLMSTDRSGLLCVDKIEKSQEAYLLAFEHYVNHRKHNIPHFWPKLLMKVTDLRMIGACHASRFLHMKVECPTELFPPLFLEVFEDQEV
Briefly: In vitro TR-α activity (in-house protocol). The class given is cell-based. Conditions: read-out: TR-α Fold Induction w.r.t T3(100 nm); for fold induction at 0.001 µM: Conc. 1 nM; for fold induction at 0.01 µM: Conc. 10 nM; for fold induction at 0.1 µM: Conc. 100 nM; for fold induction at 1 µM: Conc. 1000 nM. As to the method: as §1

Each structure is given as a SMILES string.

With `CCN(CC)S(=O)(=O)c1cc(Oc2c(Br)cc(C=NOC(C)C(=O)O)cc2Br)ccc1O` (centres unmarked) [Example 38, 2-(((3,5-dibromo-4-(3-(N,N-diethylsulfamoyl)-4-hydroxyphenoxy)benzylidene)amino)oxy)propanoic acid], in experiment [1], the fold induction at 0.001 µM is 11.8, the fold induction at 0.01 µM is 13.6, the fold induction at 0.1 µM was 25 and the fold induction at 1 µM turned out to be 82.2. In addition, in experiment [2], the fold induction at 0.001 µM worked out at 10.1, the fold induction at 0.01 µM turned out to be 16.4, the fold induction at 0.1 µM was found to be 25.3 and the fold induction at 1 µM came out at 76.2.
For the molecule `CCC(C)c1cc(Oc2c(Br)cc(C=NOC(C(=O)O)c3ccccc3)cc2Br)ccc1O` (centres unmarked) [Example 18, 2-(((3,5-dibromo-4-(3-(sec-butyl)-4-hydroxyphenoxy)benzylidene)amino)oxy)-2-phenylacetic acid], in experiment [1], the fold induction at 0.001 µM was found to be 13.8, the fold induction at 0.01 µM came out at 20.8, the fold induction at 0.1 µM came to 69.5 and the fold induction at 1 µM came out at 122. In addition, in experiment [2], the fold induction at 0.001 µM worked out at 15.5, the fold induction at 0.01 µM worked out at 36, the fold induction at 0.1 µM is 77 and the fold induction at 1 µM came out at 90.4.
For the molecule `CC(ON=Cc1cc(Br)c(Oc2ccc(O)c(C(=O)c3ccc(Cl)cc3)c2)c(Br)c1)C(=O)O` (centres unmarked) [Example 26, 2-(((3,5-dibromo-4-(3-(4-chlorobenzoyl)-4-hydroxyphenoxy)benzylidene)amino)oxy)propanoic acid], in experiment [1], the fold induction at 0.001 µM is 9.62, the fold induction at 0.01 µM worked out at 13.2, the fold induction at 0.1 µM came out at 41.2 and the fold induction at 1 µM turned out to be 76.2. In experiment [2], the fold induction at 0.001 µM is 12.1, the fold induction at 0.01 µM amounted to 13.9, the fold induction at 0.1 µM turned out to be 34.9 and the fold induction at 1 µM came out at 64.5.
For `O=C(O)CON=Cc1cc(Br)c(Oc2ccc(O)c(C(O)c3ccc(Cl)cc3)c2)c(Br)c1` (centres unmarked) [Example 29, 2-(((3,5-dibromo-4-(3-((4-chlorophenyl)(hydroxy)methyl)-4-hydroxyphenoxy)benzylidene)amino)oxy)acetic acid], in experiment [1], the fold induction at 0.001 µM is 10.6, the fold induction at 0.01 µM was 12.1, the fold induction at 0.1 µM is 33.5 and the fold induction at 1 µM was 68.5. In addition, in experiment [2], the fold induction at 0.001 µM came to 17.6, the fold induction at 0.01 µM was 21.2, the fold induction at 0.1 µM amounted to 29.9 and the fold induction at 1 µM stood at 64.2.
For the molecule `O=C(O)CON=Cc1cc(Br)c(Oc2ccc(O)c(C(O)c3ccc(Br)cc3)c2)c(Br)c1` (centres unmarked) [Example 32, 2-(((3,5-dibromo-4-(3-((4-bromophenyl)(hydroxy)methyl)-4-hydroxyphenoxy)benzylidene)amino)oxy)acetic acid], in experiment [1], the fold induction at 0.001 µM is 11.8, the fold induction at 0.01 µM worked out at 12.9, the fold induction at 0.1 µM is 14.5 and the fold induction at 1 µM is 65. In addition, in experiment [2], the fold induction at 0.001 µM turned out to be 20.4, the fold induction at 0.01 µM was determined as 16.8, the fold induction at 0.1 µM was 22.8 and the fold induction at 1 µM was found to be 69.8.
As for `CC(ON=Cc1cc(Br)c(Oc2ccc(O)c(Cc3ccccc3)c2)c(Br)c1)C(=O)O` (centres unmarked) [Example 16, 2-(((4-(3-benzyl-4-hydroxyphenoxy)-3,5-dibromobenzylidene)amino)oxy)propanoic acid], in experiment [1], the fold induction at 0.001 µM came to 12, the fold induction at 0.01 µM came out at 31.7, the fold induction at 0.1 µM is 54.3 and the fold induction at 1 µM turned out to be 70.5. In experiment [2], the fold induction at 0.001 µM came out at 19.1, the fold induction at 0.01 µM was determined as 29.4, the fold induction at 0.1 µM was determined as 119 and the fold induction at 1 µM stood at 161.
Turning to `CC(ON=Cc1cc(Br)c(Oc2ccc(O)c(S(=O)(=O)N[C@@H]3C[C@H]4CC[C@@H]3C4)c2)c(Br)c1)C(=O)O` (stereo partly drawn) [Example 40, 2-(((4-(3-(N-((1R,2R,4S)-bicyclo[2.2.1]heptan-2-yl)sulfamoyl)-4-hydroxyphenoxy)-3,5-dibromobenzylidene)amino)oxy)propanoic acid], in experiment [1], the fold induction at 0.001 µM is 10.1, the fold induction at 0.01 µM is 9.01, the fold induction at 0.1 µM turned out to be 10.9 and the fold induction at 1 µM was found to be 36.5. In addition, in experiment [2], the fold induction at 0.001 µM was 10.7, the fold induction at 0.01 µM was 9.07, the fold induction at 0.1 µM is 10.1 and the fold induction at 1 µM stood at 16.7.
Turning to `CC(ON=Cc1cc(Br)c(Oc2ccc(O)c(S(=O)(=O)NC3CCCCC3)c2)c(Br)c1)C(=O)O` (centres unmarked) [Example 39, 2-(((3,5-dibromo-4-(3-(N-cyclohexylsulfamoyl)-4-hydroxyphenoxy)benzylidene)amino)oxy)propanoic acid], in experiment [1], the fold induction at 0.001 µM was determined as 11.5, the fold induction at 0.01 µM is 11.2, the fold induction at 0.1 µM was determined as 15.8 and the fold induction at 1 µM worked out at 40.4. Besides, in experiment [2], the fold induction at 0.001 µM amounted to 10.6, the fold induction at 0.01 µM is 11.8, the fold induction at 0.1 µM is 13.5 and the fold induction at 1 µM was 29.5.
As to `CC(ON=Cc1cc(Br)c(Oc2ccc(O)c(-c3ccccc3)c2)c(Br)c1)C(=O)O` (centres unmarked) [Example 11, 2-(((3,5-dibromo-4-((6-hydroxy-[1,1′-biphenyl]-3-yl)oxy)benzylidene)amino)oxy)propanoic acid], in experiment [1], the fold induction at 0.001 µM came to 16.1, the fold induction at 0.01 µM came out at 39.3, the fold induction at 0.1 µM was found to be 73.8 and the fold induction at 1 µM was determined as 65.3. In experiment [2], the fold induction at 0.001 µM was found to be 16.2, the fold induction at 0.01 µM is 32.8, the fold induction at 0.1 µM turned out to be 70.2 and the fold induction at 1 µM is 49.4.
Take `CC(ON=Cc1cc(Br)c(Oc2ccc(O)c(C(O)c3cccc(Cl)c3)c2)c(Br)c1)C(=O)O` (centres unmarked) [Example 34, 2-(((3,5-dibromo-4-(3-((3-chlorophenyl)(hydroxy)methyl)-4-hydroxyphenoxy)benzylidene)amino)oxy)propanoic acid]: in experiment [1], the fold induction at 0.001 µM is 10.9, the fold induction at 0.01 µM stood at 9.74, the fold induction at 0.1 µM is 21.4 and the fold induction at 1 µM was determined as 47.5. Also, in experiment [2], the fold induction at 0.001 µM was determined as 14.1, the fold induction at 0.01 µM was determined as 11.8, the fold induction at 0.1 µM amounted to 17.9 and the fold induction at 1 µM was 39.8.
`CC(C)(ON=Cc1cc(Br)c(Oc2ccc(O)c(Cc3ccccc3)c2)c(Br)c1)C(=O)O` [Example 22, 2-(((4-(3-benzyl-4-hydroxyphenoxy)-3,5-dibromobenzylidene)amino)oxy)-2-methylpropanoic acid]: in experiment [1], the fold induction at 0.001 µM was determined as 9.09, the fold induction at 0.01 µM was found to be 24.9, the fold induction at 0.1 µM was determined as 44.9 and the fold induction at 1 µM was 73.9. Also, in experiment [2], the fold induction at 0.001 µM is 12.1, the fold induction at 0.01 µM stood at 27.2, the fold induction at 0.1 µM is 48.6 and the fold induction at 1 µM stood at 85.1.
Turning to `CC(C)NS(=O)(=O)c1cc(Oc2c(Br)cc(C=NOC(C)C(=O)O)cc2Br)ccc1O` (centres unmarked) [Example 37, 2-(((3,5-dibromo-4-(4-hydroxy-3-(N-isopropylsulfamoyl)phenoxy)benzylidene)amino)oxy)propanoic acid], in experiment [1], the fold induction at 0.001 µM is 8.41, the fold induction at 0.01 µM was 9.07, the fold induction at 0.1 µM amounted to 17.7 and the fold induction at 1 µM was 60.5. In experiment [2], the fold induction at 0.001 µM came to 11.2, the fold induction at 0.01 µM was 11.5, the fold induction at 0.1 µM stood at 17.6 and the fold induction at 1 µM came to 45.6.
For `O=C(O)CON=Cc1cc(Br)c(Oc2ccc(O)c(C(=O)c3ccc(Cl)cc3)c2)c(Br)c1` [Example 28, 2-(((3,5-dibromo-4-(3-(4-chlorobenzoyl)-4-hydroxyphenoxy)benzylidene)amino)oxy)acetic acid], in experiment [1], the fold induction at 0.001 µM came to 10.2, the fold induction at 0.01 µM is 26.4, the fold induction at 0.1 µM worked out at 61.7 and the fold induction at 1 µM was determined as 58.9. In experiment [2], the fold induction at 0.001 µM was 16.2, the fold induction at 0.01 µM came out at 25, the fold induction at 0.1 µM was 40.4 and the fold induction at 1 µM came to 54.5.

Source of the values: patent US20110301200A1, “THYROID RECEPTOR LIGANDS” (CADILA HEALTHCARE LIMITED, priority 2008, published 2011).
